Results taken from patent US20250074891A1 (Anaxis Pharma Pty Ltd., priority 2021, published 2025).

Experiments:
Settings in all cases: Table 35
RIP3 = RIP3 (Homo sapiens (Human), UniProt Q9Y572); test: KINOMEscan binding assay, RIP3
Procedure: (§1) Kinase assays. For most assays, kinase-tagged T7 phage strains were grown in parallel in 24-well blocks in an E. coli host derived from the BL21 strain. E. coli were grown to log-phase and infected with T7 phage from a frozen stock (multiplicity of infection=0.4) and incubated with shaking at 32° C. until lysis (90-150 minutes).
(§2) The Hill Slope was set to −1.

RIP1 = RIP1 (Homo sapiens (Human), UniProt Q13546); test: KINOMEscan binding assay, RIP1
MLKL (full length) = MLKL (full length) (Homo sapiens (Human), UniProt Q8NB16); test: KINOMEscan binding assay, MLKL (full length)
Procedure: as §1, §2

RIP3, sequence (Q9Y572 whole entry): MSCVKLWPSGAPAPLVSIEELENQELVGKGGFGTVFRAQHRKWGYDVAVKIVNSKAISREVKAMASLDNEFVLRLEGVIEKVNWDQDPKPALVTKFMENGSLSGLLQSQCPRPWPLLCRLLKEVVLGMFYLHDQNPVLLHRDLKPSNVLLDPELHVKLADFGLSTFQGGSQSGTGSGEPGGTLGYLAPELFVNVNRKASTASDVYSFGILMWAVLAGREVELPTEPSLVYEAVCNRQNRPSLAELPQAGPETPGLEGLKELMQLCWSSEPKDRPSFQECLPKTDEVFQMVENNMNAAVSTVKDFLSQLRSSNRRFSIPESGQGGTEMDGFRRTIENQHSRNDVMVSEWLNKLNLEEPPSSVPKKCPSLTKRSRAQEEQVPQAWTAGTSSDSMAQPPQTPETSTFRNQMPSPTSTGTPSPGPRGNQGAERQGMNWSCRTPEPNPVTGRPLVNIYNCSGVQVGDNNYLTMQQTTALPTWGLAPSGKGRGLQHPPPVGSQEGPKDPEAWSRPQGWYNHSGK
MLKL (full length), sequence (Q8NB16 whole entry): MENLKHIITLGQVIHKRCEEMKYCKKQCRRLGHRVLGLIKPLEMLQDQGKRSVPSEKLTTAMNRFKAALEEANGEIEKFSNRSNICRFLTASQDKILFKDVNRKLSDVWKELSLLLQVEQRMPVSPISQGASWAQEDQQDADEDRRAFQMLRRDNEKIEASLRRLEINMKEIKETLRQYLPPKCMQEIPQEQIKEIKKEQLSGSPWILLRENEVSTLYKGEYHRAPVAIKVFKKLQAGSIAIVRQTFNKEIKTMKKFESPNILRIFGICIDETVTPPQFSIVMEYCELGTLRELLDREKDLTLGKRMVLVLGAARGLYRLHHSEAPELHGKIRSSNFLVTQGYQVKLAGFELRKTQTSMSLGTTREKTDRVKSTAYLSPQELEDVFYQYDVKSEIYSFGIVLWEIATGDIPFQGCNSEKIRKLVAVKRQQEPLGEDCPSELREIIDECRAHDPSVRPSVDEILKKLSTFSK
RIP1, sequence (Q13546 whole entry): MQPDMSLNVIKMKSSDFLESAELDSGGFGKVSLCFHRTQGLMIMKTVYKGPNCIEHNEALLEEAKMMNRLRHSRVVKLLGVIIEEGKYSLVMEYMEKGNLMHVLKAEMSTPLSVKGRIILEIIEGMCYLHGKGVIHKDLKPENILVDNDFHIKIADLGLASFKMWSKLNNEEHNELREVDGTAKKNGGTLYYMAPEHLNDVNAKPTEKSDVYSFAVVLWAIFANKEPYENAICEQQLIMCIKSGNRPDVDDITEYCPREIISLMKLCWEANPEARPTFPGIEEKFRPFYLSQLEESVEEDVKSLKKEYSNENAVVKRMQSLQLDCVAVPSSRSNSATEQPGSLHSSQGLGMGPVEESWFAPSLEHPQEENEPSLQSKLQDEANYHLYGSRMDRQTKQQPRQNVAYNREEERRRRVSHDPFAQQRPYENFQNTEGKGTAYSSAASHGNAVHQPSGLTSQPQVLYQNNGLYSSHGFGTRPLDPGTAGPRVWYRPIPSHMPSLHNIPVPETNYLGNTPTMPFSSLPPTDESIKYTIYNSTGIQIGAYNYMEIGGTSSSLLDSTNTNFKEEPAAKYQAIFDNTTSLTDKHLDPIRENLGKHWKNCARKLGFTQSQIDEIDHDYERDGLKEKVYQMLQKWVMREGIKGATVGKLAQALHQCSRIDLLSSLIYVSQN

Kd (RIP3) | Kd (RIP1) | Kd (MLKL (full length)) | SMILES
> 30 µM | > 30 µM | < 0.01 µM | CCS(=O)(=O)Nc1ccc(-c2n[nH]c(Nc3ccc(C(=O)O)cn3)c2C(N)=O)cc1O[C@@H](C)c1ccc(F)cc1 [Compound 315, (S)-6-((4-carbamoyl-3-(4-(ethylsulfonamido)-3-(1-(4-fluorophenyl)ethoxy)phenyl)-1H-pyrazol-5-yl)amino)nicotinic acid]
> 30 µM | > 30 µM | < 0.01 µM | CCS(=O)(=O)Nc1ccc(-c2n[nH]c(Nc3ccnc(C)c3)c2C(N)=O)cc1 [Compound 113, 3-(4-(ethylsulfonamido)phenyl)-5-((2-methylpyridin-4-yl)amino)-1H-pyrazole-4-carboxamide]
> 30 µM | > 30 µM | < 0.01 µM | CCS(=O)(=O)Nc1ccc(-c2n[nH]c(Nc3cnccn3)c2C(N)=O)cc1OCc1ccc(Cl)cc1 [Compound 42, 3-(3-((4-chlorobenzyl)oxy)-4-(ethylsulfonamido)phenyl)-5-(pyrazin-2-ylamino)-1H-pyrazole-4-carboxamide]
> 30 µM | > 30 µM | < 0.01 µM | NC(=O)c1c(-c2ccc(NS(=O)(=O)CC(F)(F)F)c(OCc3ccc(F)cc3)c2)n[nH]c1Nc1ccnc(C(F)(F)F)n1 [Compound 186, 3-(3-((4-fluorobenzyl)oxy)-4-((2,2,2-trifluoroethyl)sulfonamido)phenyl)-5-((2-(trifluoromethyl)pyrimidin-4-yl)amino)-1H-pyrazole-4-carboxamide]
> 30 µM | > 30 µM | < 0.01 µM | NC(=O)c1c(-c2ccc(NS(=O)(=O)CCC(F)F)cc2)n[nH]c1Nc1cnccn1 [Compound 23, 3-(4-((3,3-difluoropropyl)sulfonamido)phenyl)-5-(pyrazin-2-ylamino)-1H-pyrazole-4-carboxamide]
> 30 µM | > 30 µM | < 0.01 µM | Cc1cnc(Nc2[nH]nc(-c3ccc(NS(=O)(=O)C(F)F)c(OC4(c5ccc(F)cc5)CC4)c3)c2C(N)=O)cn1 [Compound 290, 3-(4-((difluoromethyl)sulfonamido)-3-(1-(4-fluorophenyl)cyclopropoxy)phenyl)-5-((5-methylpyrazin-2-yl)amino)-1H-pyrazole-4-carboxamide]
> 30 µM | > 30 µM | < 0.01 µM | CCS(=O)(=O)Nc1ccc(-c2n[nH]c(Nc3ccc(C#N)cc3)c2C(N)=O)cc1 [Compound 102, 5-((4-cyanophenyl)amino)-3-(4-(ethylsulfonamido)phenyl)-1H-pyrazole-4-carboxamide]
> 30 µM | > 30 µM | < 0.01 µM | COc1cnc(Nc2[nH]nc(-c3ccc(NS(=O)(=O)C(F)F)c(OCc4ccc(Cl)cc4)c3)c2C(N)=O)cn1 [Compound 190, 3-(3-((4-chlorobenzyl)oxy)-4-((difluoromethyl)sulfonamido)phenyl)-5-((5-methoxypyrazin-2-yl)amino)-1H-pyrazole-4-carboxamide]
> 30 µM | > 30 µM | < 0.01 µM | NC(=O)c1c(-c2ccc(NS(=O)(=O)CC(F)(F)F)c(OCc3ccc(Cl)cc3)c2)n[nH]c1Nc1cnc(C(F)(F)F)cn1 [Compound 234, 3-{3-[(4-chlorophenyl)methoxy]-4-(2,2,2-trifluoroethanesulfonamido)phenyl}-5-{[5-(trifluoromethyl)pyrazin-2-yl]amino}-1H-pyrazole-4-carboxamide]
> 30 µM | > 30 µM | < 0.01 µM | C[C@H](Oc1cc(-c2n[nH]c(Nc3cc(C(C)(C)C)no3)c2C(N)=O)ccc1NS(=O)(=O)C(F)F)c1ccc(F)cc1 [Compound 295, (S)-5-((3-(tert-butyl)isoxazol-5-yl)amino)-3-(4-((difluoromethyl)sulfonamido)-3-(1-(4-fluorophenyl)ethoxy)phenyl)-1H-pyrazole-4-carboxamide]
> 30 µM | > 30 µM | < 0.01 µM | CCS(=O)(=O)Nc1ccc(-c2n[nH]c(Nc3cnccn3)c2C(N)=O)cc1OCCc1cccc(F)c1 [Compound 219, 3-(4-(ethylsulfonamido)-3-(3-fluorophenethoxy)phenyl)-5-(pyrazin-2-ylamino)-1H-pyrazole-4-carboxamide]
> 30 µM | > 30 µM | < 0.01 µM | CCS(=O)(=O)Nc1ccc(-c2n[nH]c(Nc3cnccn3)c2C(N)=O)cc1OCc1ccc(Cl)cn1 [Compound 242, 3-{3-[(5-chloropyridin-2-yl)methoxy]-4-ethanesulfonamidophenyl}-5-[(pyrazin-2-yl)amino]-1H-pyrazole-4-carboxamide]
> 30 µM | > 30 µM | < 0.01 µM | NC(=O)c1c(-c2ccc(NS(=O)(=O)CC(F)(F)F)c(OC3(c4ccccc4)CC3)c2)n[nH]c1Nc1cnccn1 [Compound 161, 3-(3-(1-phenylcyclopropoxy)-4-((2,2,2-trifluoroethyl)sulfonamido)phenyl)-5-(pyrazin-2-ylamino)-1H-pyrazole-4-carboxamide]
> 30 µM | > 30 µM | < 0.01 µM | CCS(=O)(=O)Nc1ccc(-c2n[nH]c(Nc3cnc4ccccc4n3)c2C(N)=O)cc1 [Compound 67, 3-(4-(ethylsulfonamido)phenyl)-5-(quinoxalin-2-ylamino)-1H-pyrazole-4-carboxamide]
> 30 µM | > 30 µM | < 0.01 µM | COCCOc1cc(Nc2[nH]nc(-c3ccc(NS(=O)(=O)N(C)C)cc3)c2C(N)=O)ccn1 [Compound 221, 3-(4-((N,N-dimethylsulfamoyl)amino)phenyl)-5-((2-(2-methoxyethoxy)pyridin-4-yl)amino)-1H-pyrazole-4-carboxamide]
> 30 µM | > 30 µM | < 0.01 µM | C[C@H](Oc1cc(-c2n[nH]c(Nc3cc(C4(C)COC4)on3)c2C(N)=O)ccc1NS(=O)(=O)C(F)F)c1ccc(F)cc1 [Compound 292, (S)-3-(4-((difluoromethyl)sulfonamido)-3-(1-(4-fluorophenyl)ethoxy)phenyl)-5-((5-(3-methyloxetan-3-yl)isoxazol-3-yl)amino)-1H-pyrazole-4-carboxamide]
> 30 µM | > 30 µM | < 0.01 µM | CCS(=O)(=O)Nc1ccc(-c2n[nH]c(Nc3cncc(C(F)(F)F)n3)c2C(N)=O)cc1OCc1ccc(F)cc1 [Compound 17, 3-(4-(ethylsulfonamido)-3-((4-fluorobenzyl)oxy)phenyl)5-((6-(trifluoromethyl)pyrazin-2-yl)amino)-1H-pyrazole-4-carboxamide]
> 30 µM | > 30 µM | < 0.01 µM | C[C@H](Oc1cc(-c2n[nH]c(Nc3cc4n(n3)CCOC4)c2C(N)=O)ccc1NS(=O)(=O)C(F)F)c1ccc(F)cc1 [Compound 308, (S)-3-(4-((difluoromethyl)sulfonamido)-3-(1-(4-fluorophenyl)ethoxy)phenyl)-5-((6,7-dihydro-4H-pyrazolo[5,1-c][1,4]oxazin-2-yl)amino)-1H-pyrazole-4-carboxamide]
> 30 µM | > 30 µM | < 0.01 µM | NC(=O)c1c(-c2ccc(NS(=O)(=O)CC(F)(F)F)c(OCc3ccc(F)c(Cl)c3)c2)n[nH]c1Nc1cnccn1 [Compound 225, 3-{3-[(3-chloro-4-fluorophenyl)methoxy]-4-(2,2,2-trifluoroethane-sulfonamido)phenyl}-5-[(pyrazin-2-yl)amino]-1H-pyrazole-4-carboxamide]
